Read-outs that look alike come from different tables or passages of the source.
Legend:
hr PDE4D = hr PDE4D (Homo sapiens, UniProt Q08499); experiment: receptor profile (Table S4); format: biochemical
hr GR antag = target: T1, hr GR antag (Homo sapiens, UniProt P04150); experiment: receptor profile (Table S4); format: biochemical
T1 sequence (P04150 1-777): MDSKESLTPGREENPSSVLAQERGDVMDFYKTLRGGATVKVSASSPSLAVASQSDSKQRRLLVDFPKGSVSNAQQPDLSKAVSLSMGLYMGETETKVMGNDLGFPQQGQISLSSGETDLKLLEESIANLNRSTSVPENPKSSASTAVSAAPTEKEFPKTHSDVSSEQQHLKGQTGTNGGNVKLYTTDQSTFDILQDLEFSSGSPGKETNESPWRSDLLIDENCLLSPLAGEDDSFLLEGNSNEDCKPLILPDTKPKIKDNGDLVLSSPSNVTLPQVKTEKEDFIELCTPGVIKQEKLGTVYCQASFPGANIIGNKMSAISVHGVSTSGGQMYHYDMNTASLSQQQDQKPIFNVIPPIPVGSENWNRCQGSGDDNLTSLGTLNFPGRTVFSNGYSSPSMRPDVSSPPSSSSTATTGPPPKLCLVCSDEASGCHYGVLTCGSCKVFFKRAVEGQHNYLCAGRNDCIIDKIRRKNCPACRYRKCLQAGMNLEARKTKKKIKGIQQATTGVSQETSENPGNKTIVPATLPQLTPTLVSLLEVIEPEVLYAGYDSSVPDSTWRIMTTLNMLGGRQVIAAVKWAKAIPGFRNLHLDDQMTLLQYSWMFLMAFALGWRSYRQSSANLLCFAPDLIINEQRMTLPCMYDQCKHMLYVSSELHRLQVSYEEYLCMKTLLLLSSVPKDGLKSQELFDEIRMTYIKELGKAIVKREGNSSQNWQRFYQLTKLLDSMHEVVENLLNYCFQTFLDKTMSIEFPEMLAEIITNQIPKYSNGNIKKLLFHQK

[1] = tested on: intramacrophage L. donovani amastigotes; experiment: L. donovani amastigote proliferation within primary mouse macrophages; format: cell-based; conditions: Leishmania donovani, Macrophage
[2] = pharmacokinetics in cynomolgus monkey; format: in vivo; conditions: male cynomolgus monkey
Method: In Vivo Intravenous PK Study in Non-human Primates. The IV PK study in non-human primates was carried out at Covance research facility in Greenfield, Indiana. The research facility is accredited by AAALAC (Association for Assessment and Accreditation of Laboratory Animal Care). The male Cynomolgus monkeys were approximately 4.5 years of age and weighed 4.2 to 5.0 kg. 1 was administered […]
75% polyethylene glycol (PEG300) as described in the earlier section. Doses were administered once by intravenous injection via the saphenous vein at a dose of 0.3 mg/kg with a dosing volume of 0.1 ml/kg.
Clinical observations and food consumption determinations were performed on all animals. Blood samples for PK analysis were collected from all animals via the femoral vein approximately 0.083, 0.25, […]
In Vivo Oral PK Study in Non-human Primates. The PO PK study in non-human primates was conducted at a Novartis facility using Non-naïve male Cynomolgus monkeys weighing 3.8 to 4.0 kg. The monkeys were fasted overnight and fed 2 hours post-dose. 1 was formulated in a suspension of 0.5% […]
gavaged with 5 mL/kg of the suspension for a total dose of 10 mg/kg. The gavage tubing was flushed with 5 mL of water to ensure the gavage tubing was cleared of the formulation. Blood samples for PK analysis were collected from all animals via the saphenous veins approximately 0.25, 0.5, 1, 2, 4, 7, 24, 48, and 72 hours post-dose.

hr Alpha2B = target: T2, hr Alpha2B (Homo sapiens, UniProt P18089); experiment: receptor profile (Table S4); format: binding
T2 sequence (P18089 1-450): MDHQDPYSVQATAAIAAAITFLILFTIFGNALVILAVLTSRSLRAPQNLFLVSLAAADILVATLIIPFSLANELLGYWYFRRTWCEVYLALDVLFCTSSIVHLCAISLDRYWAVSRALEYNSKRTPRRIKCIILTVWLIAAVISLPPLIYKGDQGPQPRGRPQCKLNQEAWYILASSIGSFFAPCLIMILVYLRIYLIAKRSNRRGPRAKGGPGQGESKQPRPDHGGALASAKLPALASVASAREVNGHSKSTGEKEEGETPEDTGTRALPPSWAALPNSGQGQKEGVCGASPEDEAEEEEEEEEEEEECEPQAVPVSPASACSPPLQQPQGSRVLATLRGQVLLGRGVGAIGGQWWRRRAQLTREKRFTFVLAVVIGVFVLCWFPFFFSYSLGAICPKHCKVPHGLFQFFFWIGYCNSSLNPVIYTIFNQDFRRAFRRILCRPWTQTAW

hr Alpha2C = target: T3, hr Alpha2C (Homo sapiens, UniProt P18825); experiment: receptor profile (Table S4); format: binding
T3 sequence (P18825 1-462): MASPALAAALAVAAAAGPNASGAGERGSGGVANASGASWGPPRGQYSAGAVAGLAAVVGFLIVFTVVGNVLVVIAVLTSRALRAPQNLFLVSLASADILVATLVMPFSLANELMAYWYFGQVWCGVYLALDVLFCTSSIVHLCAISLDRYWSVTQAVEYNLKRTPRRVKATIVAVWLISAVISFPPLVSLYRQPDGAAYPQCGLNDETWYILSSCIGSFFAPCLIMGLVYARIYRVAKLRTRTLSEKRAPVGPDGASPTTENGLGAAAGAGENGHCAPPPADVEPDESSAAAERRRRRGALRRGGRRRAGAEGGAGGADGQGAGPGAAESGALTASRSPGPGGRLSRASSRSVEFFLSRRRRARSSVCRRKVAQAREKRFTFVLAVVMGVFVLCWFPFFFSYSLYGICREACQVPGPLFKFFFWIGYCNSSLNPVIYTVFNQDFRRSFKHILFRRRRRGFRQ

[3] = target: wild-type (PSMB4^WT) L. tarentolae proteasome (Leishmania tarentolae, UniProt A0A640KTY7+A0A640KW57); experiment: chymotrypsin-like activity of purified wild-type L. tarentolae proteasome; format: biochemical; conditions: n = 3 technical replicates
[4] = male Sprague–Dawley rat, 10 mg/kg PO; dose-normalized

Sequence of hr PDE4D (Q08499 whole entry): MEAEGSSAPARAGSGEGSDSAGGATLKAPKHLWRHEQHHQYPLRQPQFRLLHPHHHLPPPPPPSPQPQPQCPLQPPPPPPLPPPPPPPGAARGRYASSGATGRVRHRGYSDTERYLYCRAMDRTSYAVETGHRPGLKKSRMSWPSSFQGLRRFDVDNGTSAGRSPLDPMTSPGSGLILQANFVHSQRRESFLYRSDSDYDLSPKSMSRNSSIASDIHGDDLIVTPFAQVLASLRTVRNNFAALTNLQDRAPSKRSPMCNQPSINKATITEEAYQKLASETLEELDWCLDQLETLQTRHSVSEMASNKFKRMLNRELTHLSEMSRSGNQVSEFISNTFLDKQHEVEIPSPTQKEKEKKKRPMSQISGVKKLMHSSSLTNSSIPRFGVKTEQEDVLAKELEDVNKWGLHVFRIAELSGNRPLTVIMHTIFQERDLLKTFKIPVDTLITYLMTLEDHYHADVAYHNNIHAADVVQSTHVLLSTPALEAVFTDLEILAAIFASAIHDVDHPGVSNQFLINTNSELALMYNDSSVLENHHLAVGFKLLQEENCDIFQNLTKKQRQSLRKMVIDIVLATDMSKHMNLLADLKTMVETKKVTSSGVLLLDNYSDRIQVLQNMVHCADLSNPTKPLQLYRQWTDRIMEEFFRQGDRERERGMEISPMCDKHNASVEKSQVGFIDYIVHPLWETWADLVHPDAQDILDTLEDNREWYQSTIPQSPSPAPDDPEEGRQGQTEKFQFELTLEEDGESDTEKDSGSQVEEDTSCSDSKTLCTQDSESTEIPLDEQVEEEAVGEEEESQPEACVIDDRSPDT
Sequence of wild-type (PSMB4^WT) L. tarentolae proteasome (A0A640KW57 100-302): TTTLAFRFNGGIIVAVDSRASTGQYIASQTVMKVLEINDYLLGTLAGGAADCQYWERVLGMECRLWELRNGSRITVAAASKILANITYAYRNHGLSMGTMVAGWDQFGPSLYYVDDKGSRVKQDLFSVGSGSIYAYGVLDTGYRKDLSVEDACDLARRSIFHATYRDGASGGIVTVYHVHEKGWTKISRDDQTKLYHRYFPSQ
Sequence of wild-type (PSMB4^WT) L. tarentolae proteasome (A0A640KTY7 1-206): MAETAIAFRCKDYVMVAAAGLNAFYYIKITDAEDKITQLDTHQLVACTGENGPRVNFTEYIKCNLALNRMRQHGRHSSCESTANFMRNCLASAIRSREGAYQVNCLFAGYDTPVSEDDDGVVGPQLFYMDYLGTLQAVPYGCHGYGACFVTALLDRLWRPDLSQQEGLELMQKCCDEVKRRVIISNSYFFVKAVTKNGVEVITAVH

Q: Which results are given for Cc1nc(C)c(C(=O)Nc2ccc(F)c(-c3nc4ncc(-c5ncccc5C)cn4n3)c2)o1 [compound 1, N-(4-Fluoro-3-(6-(3-methylpyridin-2-yl)-[1,2,4]triazolo[1,5-a]pyrimidin-2-yl)phenyl)-2,4-dimethyloxazole-5-carboxamide]?
A: EC50/IC50 (hr PDE4D; hr PDE4D): > 30 µM; inhibition at 10 µM (hr PDE4D; read-out: % inh/act @ 10 µM): 35%; inhibition at 30 µM (hr PDE4D; read-out: % inh/act @ 30 µM): 49%; EC50/IC50 (hr GR antag; hr GR antag): > 30 µM; inhibition at 10 µM (hr GR antag; read-out: % inh/act @ 10 µM): 0%; inhibition at 30 µM (hr GR antag; read-out: % inh/act @ 30 µM): 10%; EC50 [1]: 0.04 µM; MRT ([2]; in vivo, 0.3 mg/kg IV): 9.7 h; bioavailability ([2]; in vivo, 0.3 mg/kg IV and 10 mg/kg PO): 27%; clearance ([2]; in vivo, 0.3 mg/kg IV, fumarate salt): 0.054 L/h/kg; half-life ([2]; in vivo, 0.3 mg/kg IV, read-out: T1/2 IV (converted)): 9.7 h; Vd ([2]; in vivo, 0.3 mg/kg IV, read-out: Vss): 0.5 L/kg; DN AUC PO ([2]; 10 mg/kg PO, dose-normalized): 12 µM·h; DN Cmax PO ([2]; 10 mg/kg PO, dose-normalized): 1.0 µM; EC50/IC50 (hr Alpha2B; hr Alpha2B): > 30 µM; inhibition at 10 µM (hr Alpha2B; read-out: % inh/act @ 10 µM): 13%; inhibition at 30 µM (hr Alpha2B; read-out: % inh/act @ 30 µM): 16%; EC50/IC50 (hr Alpha2C; hr Alpha2C): > 30 µM; inhibition at 10 µM (hr Alpha2C; read-out: % inh/act @ 10 µM): 13%; inhibition at 30 µM (hr Alpha2C; read-out: % inh/act @ 30 µM): 32%; IC50 [3]: 0.05 µM; DN AUC PO [4]: 12 µM·h; DN Cmax PO [4]: 1.0 µM

Source: PMC7549094 (Journal of Medicinal Chemistry, 2020)
